Measured values from patent US20130261077A1 (priority 2012, published 2013).

Legend:
FimH-CRD [1] = molecular target: T1, FimH-CRD (Escherichia coli, UniProt P08191); assay: Competitive binding assay by fluorescence polarization, assay 2 (compounds prepared by robotics, plates frozen and thawed)
T1 construct: The first 177 amino acids of the FimH protein; thrombin tag (printed as 'fusion protein with thrombin') (cleaved yes); made in house; host or cells: bacteria (pET21b plasmid)
Method in brief: (§1)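 Compounds at 0.4 nM–75 μM final (12 points, 3-fold steps, duplicate) compete with a 5 nM Alexa 647 mannoside probe for 60 nM FimH-CRD; 5 h room-temperature incubation in pH 7.0 Tris buffer with 2.5% DMSO, FP read-out, Kd from fitted curves. Assay 1 uses manual dilution, assay 2 robot-made frozen/thawed plates.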

FimH-CRD [2] = molecular target: T1, FimH-CRD; assay: Competitive binding assay by fluorescence polarization, assay 1 (compounds prepared by manual serial dilution)
Method in brief: as §1

T1 sequence (P08191 22-177): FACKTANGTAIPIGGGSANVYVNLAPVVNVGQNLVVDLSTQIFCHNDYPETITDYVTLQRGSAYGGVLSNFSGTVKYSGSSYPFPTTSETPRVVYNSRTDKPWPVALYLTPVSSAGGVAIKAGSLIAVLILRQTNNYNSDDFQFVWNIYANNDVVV

SMILES | Kd (FimH-CRD [1]) [nM] | Kd (FimH-CRD [2]) [nM] | IC50 (FimH-CRD [2]) [nM]
CCCCNC(=O)c1cccc([C@H]2O[C@H](CO)[C@@H](O)[C@H](O)[C@@H]2O)c1 [Compound 38, N-butyl-3-((2R,3S,4R,5S,6R)-3,4,5-trihydroxy-6-(hydroxymethyl)tetrahydro-2H-pyran-2-yl)benzamide] | 72.4 ± 34.8 | 50.4 ± 3.6 | 
CNC(=O)c1cc(C(=O)NC)cc(-c2ccccc2[C@H]2O[C@H](CO)[C@@H](O)[C@H](O)[C@@H]2O)c1 [Compound 40, N^3,N^5-dimethyl-2′-((2R,3S,4R,5S,6R)-3,4,5-trihydroxy-6-(hydroxymethyl)tetrahydro-2H-pyran-2-yl)-[1,1′-biphenyl]-3,5-dicarboxamide] | 447 ± 490 | 474 ± 49.5 | 2050
COc1cccc([C@H]2O[C@H](CO)[C@@H](O)[C@H](O)[C@@H]2O)c1 [Compound 44, (2R,3S,4R,5S,6R)-2-(hydroxymethyl)-6-(3-methoxyphenyl)tetrahydropyran-3,4,5-triol] | 50.4 ± 10.1 | 41.8 ± 11.6 | 156
Cc1nnc(-c2ccc(-c3cccc([C@H]4O[C@H](CO)[C@@H](O)[C@H](O)[C@@H]4O)c3)cc2)o1 [Compound 48, (2R,3S,4R,5S,6R)-2-(hydroxymethyl)-6-[3-[4-(5-methyl-1,3,4-oxadiazol-2-yl)phenyl]phenyl]tetrahydropyran-3,4,5-triol] | 8.5 ± 1.3 | < 5 | 34
COC(=O)c1cc(Oc2ccc([C@H]3O[C@H](CO)[C@@H](O)[C@H](O)[C@@H]3O)cc2)cc(C(=O)OC)c1 [Compound 53, dimethyl 5-(4-((2R,3S,4R,5S,6R)-3,4,5-trihydroxy-6-(hydroxymethyl)tetrahydro-2H-pyran-2-yl)phenoxy)isophthalate] | 15.7 ± 10.2 | < 5 | 25
COC(=O)c1ccc(Oc2ccc([C@H]3O[C@H](CO)[C@@H](O)[C@H](O)[C@@H]3O)cc2)cc1 [Compound 54, methyl 4-(4-((2R,3S,4R,5S,6R)-3,4,5-trihydroxy-6-(hydroxymethyl)tetrahydro-2H-pyran-2-yl)phenoxy)benzoate] | 13.2 ± 9.2 | < 5 | 16
Cc1nnc(-c2ccc(Oc3cccc([C@H]4O[C@H](CO)[C@@H](O)[C@H](O)[C@@H]4O)c3)cc2)o1 [Compound 60, (2R,3S,4R,5S,6R)-2-(hydroxymethyl)-6-[3-[4-(5-methyl-1,3,4-oxadiazol-2-yl)phenoxy]phenyl]tetrahydropyran-3,4,5-triol] | 10.7 ± 5.3 | 8.7 ± 2.1 | 31
COC(=O)c1cc(C(=O)OC)cc(-c2cccc([C@H]3O[C@H](CO)[C@@H](O)[C@H](O)[C@@H]3O)c2)c1 [Compound 62, Dimethyl 3′-((2R,3S,4R,5S,6R)-3,4,5-trihydroxy-6-(hydroxymethyl)tetrahydro-2H-pyran-2-yl)-[1,1′-biphenyl]-3,5-dicarboxylate] | 7.6 ± 2 | 5.5 ± 0.4 | 
CNC(=O)c1cc(Oc2cccc([C@H]3O[C@H](CO)[C@@H](O)[C@H](O)[C@@H]3O)c2)cc(C(=O)NC)c1 [Compound 64, N1,N3-dimethyl-5-(3-((2R,3S,4R,5S,6R)-3,4,5-trihydroxy-6-(hydroxymethyl)tetrahydro-2H-pyran-2-yl)phenoxy)isophthalamide] | 20.7 ± 16.8 | 15 ± 2.6 | 55
OC[C@H]1O[C@H](c2cc(O)ccc2Cl)[C@@H](O)[C@@H](O)[C@@H]1O [Compound 68, (2R,3S,4R,5S,6R)-2-(2-chloro-5-hydroxyphenyl)-6-(hydroxymethyl)tetrahydro-2H-pyran-3,4,5-triol] | 35 ± 21.2 | 22.1 ± 10.1 | 22
OC[C@H]1O[C@H](c2cccc(-c3cc(Cl)cc(Cl)c3)c2)[C@@H](O)[C@@H](O)[C@@H]1O [Compound 79, (2R,3S,4R,5S,6R)-2-[3-(3,5-Dichlorophenyl)phenyl]-6-(hydroxymethyl)tetrahydropyran-3,4,5-triol] | 12.8 ± 0.9 | < 5 | 
Cc1nnc(-c2cccc(-c3ccc([C@H]4O[C@H](CO)[C@@H](O)[C@H](O)[C@@H]4O)cc3)c2)o1 [Compound 130, (2R,3S,4R,5S,6R)-2-(hydroxymethyl)-6-[4-[3-(5-methyl-1,3,4-oxadiazol-2-yl)phenyl]phenyl]tetrahydropyran-3,4,5-triol] | 46.2 | < 5 | 
CC(C)C(=O)Nc1ccc(Oc2cccc([C@H]3O[C@H](CO)[C@@H](O)[C@H](O[C@H]4O[C@H](CO)[C@@H](O)[C@H](O)[C@@H]4O)[C@@H]3O)c2)cc1 [Compound 273, N-[4-[3-[(2R,3R,4R,5R,6R)-3,5-Dihydroxy-6-(hydroxymethyl)-4-[(2R,3S,4S,5S,6R)-3,4,5-trihydroxy-6-(hydroxymethyl)tetrahydropyran-2-yl]oxy-tetrahydropyran-2-yl]phenoxy]phenyl]-2-methyl-propanamide] | 21.8 ± 5.2 | 12.1 ± 5.7 | 38
COC(=O)COc1cccc([C@H]2O[C@H](CO)[C@@H](O)[C@H](O[C@H]3O[C@H](CO)[C@@H](O)[C@H](O)[C@@H]3O)[C@@H]2O)c1 [Compound 286, Methyl 2-[3-[(2R,3R,4R,5R,6R)-3,5-dihydroxy-6-(hydroxymethyl)-4-[(2R,3S,4S,5S,6R)-3,4,5-trihydroxy-6-(hydroxymethyl)tetrahydropyran-2-yl]oxy-tetrahydropyran-2-yl]phenoxy]acetate] | 35.1 ± 16.7 | 17.4 ± 4.8 | 63
OC[C@H]1O[C@H](c2cccc(Br)c2)[C@@H](O)[C@@H](O)[C@@H]1O [Intermediate C, (2R,3S,4R,5S,6R)-2-(3-bromophenyl)-6-(hydroxymethyl)tetrahydro-2H-pyran-3,4,5-triol] | 27 | 24 ± 5 | 
